Assay results as given in paper PMC9714824, “Hexapeptides from mammalian inhibitory hormone hunt activate and inactivate nematode reproduction” (PLOS ONE, 2022).

What was measured:
PC3 cells = assay: MTS colorimetric viable cell assay, PC3; type: cell-based, human; details: for Difference in percentage terms between control and test OD means: PC3, 30 μM, 27h, MTS, 492 nm, triplicate
Protocol: (§1) Assays involving a range of peptides from 14mer down to 6mers assessed total viable PC3 or PNT2 cells using a 96-well plate MTS colorimetric assay (CellTiter 96 Aqueous One Solution Cell Proliferation Assay, Promega, Southampton, UK), with absorbance measured at 492 nm. Cells were seeded at 8,000 per well and grown for 27h. Peptides were administered at the outset to a final concentration of 30 μM (in 2 μl) to samples in triplicate. (A higher dosage was used than in the 14mer peptides study to shorten the timecourse of response.) Controls received buffer. Data are OD mean +/ − SEM, with statistical analysis by two tailed t-test. A time course study of the 14mers on PC3s, using the same technique, involved measurements at 24h and 48h.
(§2) Fig 5 Effects of a range of peptides on human prostate cancer cell growth in vitro. Assays involved a range of peptides from 14mers down to 6mers (Table 1), with viable cells assessed using a 96-well plate MTS colorimetric assay. Absorbance measured at 492 nm. Cells were seeded at 8,000 per well and grown for 27h. Peptides were administered at the outset to a final concentration of 30 μM (in 2 μl) to samples in triplicate. Controls received buffer. Data are OD mean +/- SEM, with statistical analysis by two tailed t-test. * p<0.05; **p<0.025.

PNT2 cells = assay: MTS colorimetric viable cell assay, PNT2; type: cell-based, human; details: 30 μM, 27h, 492 nm, triplicate
Protocol: as §1, §2

DU145 cells = assay: MTS viable cell assay, DU145 (Epistem); type: cell-based, human; details: DU145, 72h
Protocol: Further assays on human prostate cancer cells were conducted at a contract research organisation (Epistem, Manchester, UK). LNCaP or DU145 cells seeded at 3,000 cells/well across a 96-well plate were cultured in RPMI (phenol red free), 10% FCS, 1% sodium pyruvate, Pen/strep and L-glutamine for 24h before exposure to peptides, at a single dose level in the case of LNCaPs or multiple dose levels in the case of DU145s. (For dose levels see Results.) Controls received vehicle (1% PBS). For the DU145s peptide administration was repeated after 24h. 72h after the first administration (DU145s) or only administration (LNCaP) total viable cell numbers were measured colorimetrically (MTS) using a CellTiter 96 AQueous One Solution Cell Proliferation Assay (Promega, Southampton, UK), following manufacturer’s instructions. Briefly, the media on the plates was replaced with the CellTiter reagent diluted 1:5 in DMEM. The plates were returned to the incubator for 3 hours before reading absorbance at 492 nm on a FLUORstar OPTIMA (BMG Labtech). CellTiter data are the absorbance minus background values (CellTiter plus DMEM), expressed as (OD mean +/− SEM). Statistical analysis was by ANOVA, Dunnett’s multiple comparisons test.

rat bone marrow cells = assay: Bone marrow cell assay, time-lapse cell counts over 24h; type: cell-based
Protocol: The method has been described previously at length. Bone marrow cells, consisting of various cell types including mesenchymal stem cells and fibroblasts, were cultured from adult male rats (Rattus norvegicus, SD strain). These cells were passaged from a growing primary stock in a T75 tissue culture flask (Sarstedt) into a 48 well tissue culture plate (IWAKI), with a cell density of 1 x 10^5/ml. The cell culture media, henceforth referred to as ‘supplemented a-MEMS,’ comprised α-MEMS media supplemented with 10% FCS and 1% penicillin/streptomycin (all Life Technologies, Carlsbad, CA, US). On the day of peptide addition to the cells, the supplemented α-MEMS was gently removed and fresh supplemented α-MEMS added, with 10% test material by volume to achieve micromolar concentrations, untreated controls receiving just fresh supplemented α-MEMS. (For dose levels see legends in respective result figures) All samples were filter sterilised using a Millex-GV […] syringe filter unit (Merck, Kenilworth, NJ, USA). The cells were imaged for 24 h using an incubated Zeiss Axiovert 135M microscope with a Prior Proscan II motorised stage, at 37 °C with a 5% CO2 in air feed. Each well of the 48-well tissue culture plate was then imaged for 24h every 5 min using Metamorph software (MDS Analytical Technologies, Wokingham, UK), with each well having four fields of view. The viability and cell numbers were reviewed by analysing the images captured over the 24h period and cell counts were taken at selected time points using the Metamorph software.
Fig 6 Bone marrow cells in culture exposed to long peptides. Cells were counted over 24h after exposure to the 14mer peptide EPL001 or its scrambled-sequence control EPL030 at 6μM final concentration or to the 20mer EPL120 at 5μM final concentration, compared to peptide-untreated controls.
Fig 7 Bone marrow cells in culture exposed to hexapeptides. Cells were counted over 24h after exposure to either EPL016 (= MKPLTG, the ‘Front 6’ of the 14mer EPL001) or EPL036 (= IEPVFT, the ‘Back 6’ of EPL030, the scrambled-sequence control of EPL001) at 1μM final concentration, compared to peptide-untreated controls.

Caenorhabditis elegans = details: cited from earlier work
Description: As a control compound there was synthesized EPL030, having the aa sequence KLKMNGKNIEPVFT. This is a scrambling of EPL001’s sequence, based on cards drawn at random by one of us (CRM). […] The figures for fecundity were EPL001 +43 ... || Returning to EPL030, the scrambled-sequence EPL001 comparator, this has engendered perplexity by displaying the same activity as EPL001 across multiple mammalian systems. Thus, EPL030 suppressed human prostate cancer cells in vitro more than EPL001 in two laboratories and the proliferation of rat bone marrow cells in vitro in a third.

Steinernema siamkayai [1] = assay: Steinernema siamkayai reproduction and development on lipid agar plates with hexapeptides; type: in vivo; set-up: key to Infective juveniles / Adults: counts per plate, scaled from 0.05 ml subsamples to 20 ml; details: for Infective juveniles / Adults: S3 Table 2
Description: (§3) The attempt was made here to replicate prior fecundity work in another species of nematode, the entomopathogenic (insect slaying) Steinernema siamkayai. Species confirmation involved standard morphological and molecular techniques (S3 File, Nematodes). S. siamkayai is a biocontrol agent of potential economic significance in global agriculture, reducing the need for pesticides. Crucial for deployment is the production of ‘infective juveniles’. These forms penetrate the larvae of insect pests, releasing a bacterium, Xenorhabdus spp., which ultimately kills the larvae. Stock solutions (5 mg mL^-1) of EPL036 (IEPVFT) and EPL630 (KLKMNG) were made up and stored at −20 °C. Lipid Agar plates were prepared by pouring 5 ml media in 60 mm plastic Petri dishes. The plates were inoculated with an overnight-grown bacterial culture of Xenorhabdus spp. (10^9 cfu/ml) at 100 μl/plate and incubated at 28 °C for 24h. Xenorhabdus bacteria are symbiotically associated with S. siamkayai. While multiplying, Xenorhabdus metabolises the constituents of the lipid agar and the resulting by-products are the food supplement for the nematodes that triggers the worms to grow and multiply. From the stock solutions, peptides were introduced individually into the centre of the Lipid Agar plates with Xenorhabdus lawn. Two concentrations of peptide were used, 4 and 8 μL of the 5 mg mL^-1 stock peptide solutions (making 20 and 40 μg of peptide per plate in total, respectively, i.e. ~6 and ~12 μM). Each peptide solution was uniformly spread using an L shaped spreader and allowed to absorb into the agar plate for 10 minutes. Nematodes were harvested beforehand as follows. Third-stage infective juveniles (IJs) of S. siamkayai were used to infect fourth instar Galleria larvae. Following larval death, the Galleria cadavers were placed on a White’s Trap to harvest fresh progeny within 5–6 days. After storage in sterile water, these new-generation IJs were concentrated and inoculated on the bacterial plates on Day 1 at 500 and 1000 IJs /plate. The eight treatments (two inocula at two peptide concentrations) and two controls (two inocula without peptides) were replicated (x3) and incubated at 28 °C. Observations of behaviour and morphology were made at intervals throughout the study, then on Day 5 (i.e. after 4 units of 24h) the nematodes were harvested. Two ml of distilled water was poured on each Petri dish and gently stirred to release the nematodes from the surface. The surface washings containing suspended nematodes were collected in a standard volume of 20 ml of distilled water. The number of mature adults (male and female) and the second-generation juveniles (J1, J2, J3 and pre-adults) were counted using a dissecting microscope (x10 magnification, 4 fields) in 0.05 ml subsamples (x3) and multiplied up to the standard volume of 20 ml.
Fig 2 Developmental impact on Steinernema siamkayai of hexapeptides after 4 days. INOCULUM = founding population of infective juveniles (IJs). ‘Infective juveniles’ on the vertical axis are mostly second-generation IJs. Peptides applied at the start of the study were EPL036 = IEPVFT, […] = KLKMNG. Total = Adults + Infective juveniles. Data are mean +/- SEM (average of 3 replicates). Statistical analysis: ANOVA. Control bars are doubly represented for ease of comparison. Note different vertical axes. […]

Steinernema siamkayai [2] = assay: Nematode pilot study fecundity (S3 Table 1); type: in vivo; details: inoculum 5 IJs
Description: as §3
Mean number of A) Infective juveniles and B) Adults following inoculation of Petri dishes treated with EPL036 and EPL630 at 4 µL and 8 µL and an untreated control; Petri dishes were initially inoculated with 5 infective juveniles of Steinernema siamkayai following the method used in the main manuscript (Single way ANOVA presented beneath each data set).

[3] = 4 µL, inoculum 1000, mean of 3 reps
[4] = 8 µL, inoculum 1000, mean of 3 reps

MLKTGEKPVFKNNI [EPL143, Contiguous form of sSgII-14, an anagram of EPL001; benchmark for chi-squared test]
Difference in percentage terms between control and test OD means (PC3 cells): −10.2% | Difference in percentage terms between control and test OD means (PNT2 cells): −20.6% | Test mean OD vs control mean (DU145 cells; 0.15 μM): −4.3% | Test mean OD vs control mean (DU145 cells; 150 μM (highest concentration)): −18.7%

MKPLTG [EPL016, MKPLTG, EPL001 Front 6]
Reduction of the population of rat bone marrow cells (rat bone marrow cells; 1μM in the medium, controls increased by about the same percentage): 18% | Increase in cumulative offspring vs untreated controls (Caenorhabditis elegans): 50%

MLKTGEKPNFKNNI [EPL141, Human version of EPL143, with sheep V replaced by human N9]
Difference in percentage terms between control and test OD means (PC3 cells): −22.6% | Mean OD as % of the EPL001 mean (PC3 cells; PC3 time course study, 24h): 56% | Difference in percentage terms between control and test OD means (PNT2 cells): −27.9%

IEPVFT [EPL036, IEPVFT, EPL030 Back 6]
Infective juveniles (Steinernema siamkayai [1]; 4 µL, inoculum 500, mean of 3 reps): 7482 | Adults (Steinernema siamkayai [1]; [3]): 446 | Infective juveniles (Steinernema siamkayai [1]; [3]): 13686 | Infective juveniles (Steinernema siamkayai [1]; 8 µL, inoculum 500, mean of 3 reps): 9644 | Adults (Steinernema siamkayai [1]; [4]): 10 | Infective juveniles (Steinernema siamkayai [1]; [4]): 19161 | Infective juveniles (Steinernema siamkayai [1]; 8 µL, inoculum 1000, rep 1): 19141 | Infective juveniles (Steinernema siamkayai [1]; 8 µL, inoculum 1000, rep 2): 19149 | Infective juveniles (Steinernema siamkayai [1]; 8 µL, inoculum 1000, rep 3): 19193 | Egg production in females (Steinernema siamkayai [1]; compared with untreated controls, 48h exposure (Fig 3)): visibly bloated with eggs | Time after incubation to fully grown males and females (Steinernema siamkayai [1]; observational): 36 h | Time for infective juveniles to transform into pre-adults (Steinernema siamkayai [1]; observational): ≤ 24 h | Adults (Steinernema siamkayai [2]; 4 µL, mean of 9 reps): 1.7 | Infective juveniles (Steinernema siamkayai [2]; 4 µL, mean of 9 reps): 43.2 | Adults (Steinernema siamkayai [2]; 4 µL, rep 1): 1 | Adults (Steinernema siamkayai [2]; 4 µL, rep 2): 1 | Adults (Steinernema siamkayai [2]; 4 µL, rep 3): 2 | Adults (Steinernema siamkayai [2]; 4 µL, rep 4): 1 | Adults (Steinernema siamkayai [2]; 4 µL, rep 5): 2 | Adults (Steinernema siamkayai [2]; 4 µL, rep 6): 2 | Adults (Steinernema siamkayai [2]; 4 µL, rep 7): 2 | Adults (Steinernema siamkayai [2]; 4 µL, rep 8): 2 | Adults (Steinernema siamkayai [2]; 4 µL, rep 9): 2 | Adults (Steinernema siamkayai [2]; 8 µL, mean of 9 reps): 0 | Infective juveniles (Steinernema siamkayai [2]; 8 µL, mean of 9 reps): 75.8 | Adults (Steinernema siamkayai [2]; 8 µL, rep 1): 0 | Adults (Steinernema siamkayai [2]; 8 µL, rep 2): 0 | Adults (Steinernema siamkayai [2]; 8 µL, rep 3): 0 | Adults (Steinernema siamkayai [2]; 8 µL, rep 4): 0 | Adults (Steinernema siamkayai [2]; 8 µL, rep 5): 0 | Adults (Steinernema siamkayai [2]; 8 µL, rep 6): 0 | Adults (Steinernema siamkayai [2]; 8 µL, rep 7): 0 | Adults (Steinernema siamkayai [2]; 8 µL, rep 8): 0 | Adults (Steinernema siamkayai [2]; 8 µL, rep 9): 0 | Effect on bone marrow cells in culture (rat bone marrow cells; 1μM final concentration, in words (Fig 7)): cytostatic | Increase in cumulative offspring vs untreated controls (Caenorhabditis elegans): +79%
